Experimental data from PubChem BioAssay AID248 (DTP/NCI, 2004).
Several values for one entry are separate records, joined by “and”; a condition that tells them apart may be missing. Equal values may be shown once. Toxic doses and inconclusive results are not listed. Rule as the data show it: active = T/C of 150% or more; inactive = T/C below 125%.

Test system: L1210 leukemia ip in BDF1 mice, survival T/C
Test: NCI In Vivo Anticancer Drug Screen. Data for tumor model L1210 Leukemia (intraperitoneal) in B6D2F1 (BDF1) mice
Conditions: endpoint: mean survival time, higher = longer survival
Method in brief: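 Transplantable tumor model; survival measured in treated vs vehicle control mice. Value = treated/control.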

[1] = dose: 50.0 mg/kg/injection, schedule: Q01DX009 (ip), vehicle: saline
[2] = dose: 100.0 mg/kg/injection, schedule: Q01DX009 (ip), vehicle: saline
[3] = dose: 200.0 mg/kg/injection, schedule: Q01DX009 (ip), vehicle: saline
[4] = dose: 400.0 mg/kg/injection, schedule: Q01DX009 (ip), vehicle: saline
[5] = dose: 50.0 mg/kg/injection, schedule: Q04DX002 (ip), vehicle: Klucel (hydroxypropylcellulose) (HPC)
[6] = dose: 100.0 mg/kg/injection, schedule: Q04DX002 (ip), vehicle: Klucel (hydroxypropylcellulose) (HPC)
[7] = dose: 100.0 mg/kg/injection, schedule: Q04DX003 (ip), vehicle: Klucel (hydroxypropylcellulose) (HPC)
[8] = dose: 200.0 mg/kg/injection, schedule: Q04DX003 (ip), vehicle: Klucel (hydroxypropylcellulose) (HPC)
[9] = dose: 400.0 mg/kg/injection, schedule: Q04DX003 (ip), vehicle: Klucel (hydroxypropylcellulose) (HPC)
[10] = dose: 100.0 mg/kg/injection, schedule: Q04DX003 (ip), vehicle: saline
[11] = dose: 200.0 mg/kg/injection, schedule: Q04DX003 (ip), vehicle: saline
[12] = dose: 400.0 mg/kg/injection, schedule: Q04DX003 (ip), vehicle: saline
[13] = dose: 100.0 mg/kg/injection, schedule: Q01DX009 (ip), vehicle: Klucel (hydroxypropylcellulose) (HPC)
[14] = dose: 200.0 mg/kg/injection, schedule: Q01DX009 (ip), vehicle: Klucel (hydroxypropylcellulose) (HPC)
[15] = dose: 400.0 mg/kg/injection, schedule: Q01DX009 (ip), vehicle: Klucel (hydroxypropylcellulose) (HPC)
[16] = dose: 6.25 mg/kg/injection, schedule: Q01DX009 (ip), vehicle: saline

Measured: T/C

CC1CN1P(=O)(OCCC#N)N1CC1C (configuration not stated)
inactive: [1] 99 % of control and 111 % of control | [2] 110 % of control and 113 % of control | dose: 132.0 mg/kg/injection, schedule: Q04DX003 (ip), vehicle: acetone 109 % of control | [3] 108 % of control | [4] 96 % of control

CCCCCCC(N)C(=O)O (configuration not stated)
inactive: dose: 25.0 mg/kg/injection, schedule: Q04DX002 (ip), vehicle: Klucel (hydroxypropylcellulose) (HPC) 95 % of control | [5] 104 % of control | [6] 100 % of control | [7] 96 % of control | [8] 100 % of control | [9] 103 % of control

N#Cc1cc([N+](=O)[O-])c(Cl)c([N+](=O)[O-])c1Cl
inactive: dose: 3.13 mg/kg/injection, schedule: Q01DX009 (ip), vehicle: saline with Tween-80 95 % of control | dose: 6.25 mg/kg/injection, schedule: Q01DX009 (ip), vehicle: saline with Tween-80 108 % of control | dose: 6.25 mg/kg/injection, schedule: Q04DX003 (ip), vehicle: saline with Tween-80 98 % of control | dose: 12.5 mg/kg/injection, schedule: Q01DX009 (ip), vehicle: saline with Tween-80 101 % of control | dose: 12.5 mg/kg/injection, schedule: Q04DX003 (ip), vehicle: saline with Tween-80 95 % of control

O=N[O-].O=N[O-].[NH2-].[NH2-].[Pt+2]
inactive: dose: 12.5 mg/kg/injection, schedule: Q01DX009 (ip), vehicle: Klucel (hydroxypropylcellulose) (HPC) 103 % of control | dose: 25.0 mg/kg/injection, schedule: Q01DX009 (ip), vehicle: Klucel (hydroxypropylcellulose) (HPC) 106 % of control | dose: 50.0 mg/kg/injection, schedule: Q01DX009 (ip), vehicle: Klucel (hydroxypropylcellulose) (HPC) 106 % of control

CC(OC(=O)CCN1CC1)C1CC1 (configuration not stated)
inactive: dose: 2.5 mg/kg/injection, schedule: Q01DX009 (ip), vehicle: Klucel (hydroxypropylcellulose) (HPC) 103 % of control | dose: 5.0 mg/kg/injection, schedule: Q01DX009 (ip), vehicle: Klucel (hydroxypropylcellulose) (HPC) 102 % of control | dose: 10.0 mg/kg/injection, schedule: Q01DX009 (ip), vehicle: Klucel (hydroxypropylcellulose) (HPC) 100 % of control | dose: 20.0 mg/kg/injection, schedule: Q01DX009 (ip), vehicle: Klucel (hydroxypropylcellulose) (HPC) 101 % of control | dose: 20.0 mg/kg/injection, schedule: Q04DX003 (ip), vehicle: Klucel (hydroxypropylcellulose) (HPC) 103 % of control | dose: 40.0 mg/kg/injection, schedule: Q04DX003 (ip), vehicle: Klucel (hydroxypropylcellulose) (HPC) 93 % of control | dose: 80.0 mg/kg/injection, schedule: Q04DX003 (ip), vehicle: Klucel (hydroxypropylcellulose) (HPC) 101 % of control | [7] 87 % of control

CCC(C)C(CCN(CC)CC)(CNC(=O)CN(CC)CC)c1cccc2ccccc12 (configuration not stated)
inactive: [2] 97 % of control

CC(=Nc1ccccc1)NO
inactive: dose: 50.0 mg/kg/injection, schedule: Q01DX009 (ip), vehicle: acetone 94 % of control | dose: 100.0 mg/kg/injection, schedule: Q01DX009 (ip), vehicle: acetone 97 % of control | [10] 96 % of control | dose: 200.0 mg/kg/injection, schedule: Q01DX009 (ip), vehicle: acetone 100 % of control | [11] 108 % of control | [12] 96 % of control

CC(C)=NOS(=O)(=O)c1c(C)cc(C)cc1C
inactive: [5] 98 % of control | [13] 87 % of control | [6] 98 % of control and 89 % of control | [14] 97 % of control | dose: 200.0 mg/kg/injection, schedule: Q04DX002 (ip), vehicle: Klucel (hydroxypropylcellulose) (HPC) 105 % of control | [15] 97 % of control | dose: 400.0 mg/kg/injection, schedule: Q04DX002 (ip), vehicle: Klucel (hydroxypropylcellulose) (HPC) 92 % of control

CC(C)N1c2c(nc(N)[nH]c2=O)NCC1CNc1ccc(C(=O)NC(CCC(=O)O)C(=O)O)cc1 (configuration not stated)
inactive: [2] 102 % of control | [10] 104 % of control | [3] 102 % of control | [11] 98 % of control | [4] 102 % of control | [12] 98 % of control

Brc1cc(Br)cc(Br)c1
inactive: [7] 92 % of control and 98 % of control | [8] 101 % of control and 105 % of control | [9] 98 % of control and 103 % of control

CCCCCCCCCCCC[N+](CCO)(CCO)Cc1ccccc1
inactive: dose: 3.12 mg/kg/injection, schedule: Q01DX009 (ip), vehicle: saline 96 % of control | [16] 98 % of control | dose: 12.5 mg/kg/injection, schedule: Q04DX003 (ip), vehicle: saline 88 % of control

CN(C)N=Nc1ccc(C(=N)N)cc1
inactive: dose: 100.0 mg/kg/injection, schedule: Q01DX001 (ip), vehicle: acid diluted with saline 105 % of control

CC(C)CC(CC(C)C)NCCOC(=O)Cc1ccccc1
inactive: dose: 75.0 mg/kg/injection, schedule: Q01DX001 (ip), vehicle: other 93 % of control | dose: 150.0 mg/kg/injection, schedule: Q01DX001 (ip), vehicle: other 89 % of control

C1COC(N2CC3CCC(CC3)C2)=N1
inactive: dose: 75.0 mg/kg/injection, schedule: Q01DX001 (ip), vehicle: saline 96 % of control | dose: 150.0 mg/kg/injection, schedule: Q01DX001 (ip), vehicle: saline 105 % of control

COc1cc(C2=C3C(=O)OC[C@@H]3Cc3cc4c(cc32)OCO4)cc(OC)c1OC
inactive: dose: 100.0 mg/kg/injection, schedule: Q01DX001 (ip), vehicle: saline 94 % of control | [13] 91 % of control | [7] 95 % of control | [10] 105 % of control | dose: 200.0 mg/kg/injection, schedule: Q01DX001 (ip), vehicle: saline 104 % of control | [14] 94 % of control | [8] 97 % of control | [11] 96 % of control | dose: 400.0 mg/kg/injection, schedule: Q01DX001 (ip), vehicle: saline 93 % of control | [15] 96 % of control | [9] 92 % of control | [12] 101 % of control

COC1OC(C)C(NC(C)=O)C(OCc2ccccc2)C1OCc1ccccc1 (configuration not stated)
inactive: [7] 95 % of control | [8] 95 % of control | [9] 97 % of control

CN(C)/C=N\c1c(C#N)c(CC#N)nn1-c1ccccc1
inactive: dose: 25.0 mg/kg/injection, schedule: Q01DX009 (ip), vehicle: saline with Tween-80 98 % of control | dose: 25.0 mg/kg/injection, schedule: Q04DX003 (ip), vehicle: saline with Tween-80 103 % of control | dose: 50.0 mg/kg/injection, schedule: Q01DX009 (ip), vehicle: saline with Tween-80 100 % of control | dose: 50.0 mg/kg/injection, schedule: Q04DX003 (ip), vehicle: saline with Tween-80 93 % of control | dose: 100.0 mg/kg/injection, schedule: Q01DX009 (ip), vehicle: saline with Tween-80 88 % of control | dose: 100.0 mg/kg/injection, schedule: Q04DX003 (ip), vehicle: saline with Tween-80 98 % of control and 99 % of control

CNCC(C)(C)c1ccccc1
inactive: [16] 101 % of control | dose: 12.5 mg/kg/injection, schedule: Q01DX009 (ip), vehicle: saline 101 % of control | dose: 25.0 mg/kg/injection, schedule: Q01DX009 (ip), vehicle: saline 102 % of control | dose: 25.0 mg/kg/injection, schedule: Q04DX003 (ip), vehicle: saline 104 % of control | [1] 107 % of control | dose: 50.0 mg/kg/injection, schedule: Q04DX003 (ip), vehicle: saline 104 % of control | [2] 104 % of control | [10] 106 % of control
